Laboratory results taken from US11566057B2, “Long-acting co-agonists of the glucagon and GLP-1 receptors” (Merck Sharp & Dohme Corp., priority 2017, dated 2023).
Where two headings read alike, the source gives them in different places. Numbered stars: 1 amine (or outer) side, 2 acyl side, 3 side chain; on linkers, the order of the positions; unused ones are H or OH. Square brackets hold non-standard residues; d marks the D form. Side chains are listed from the residue outwards. Peptide text beside a SMILES is read from it. * marks the point of attachment. C20 diacid = O=C(O)CCCCCCCCCCCCCCCCCCC(=O)*; Phe(4-CH2NH2) = NCc1ccc(C[C@H](N)C(=O)O)cc1; C18 diacid = O=C(O)CCCCCCCCCCCCCCCCC(=O)*; C16 diacid = O=C(O)CCCCCCCCCCCCCCC(=O)*; γGlu = O=C(O)[C@H](CCC(=O)[*:2])N[*:1]; Met(O2) = CS(=O)(=O)CC[C@H](N)C(=O)O; αMeD = C[C@](N)(CC(=O)O)C(=O)O; αMeS = C[C@](N)(CO)C(=O)O; AEEA = NCCOCCOCC(=O)O; Aib = CC(C)(N)C(=O)O

Experiments:
[1] = molecular target: T1, human GCGR (Homo sapiens, UniProt P47871); assay: cAMP activity assay at the Glucagon receptor (GCGR); assay type: cell-based; settings: for hGCGR/hGLP1R (hTone): ratio of GCGR EC50 to GLP1R EC50
T1 construct: expressed in transfected cells; growth medium holds Blasticidin and Hygromycin
Summary of the method: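 Peptides serially diluted from DMSO (10 points) and added to frozen-stock cells bearing human GLP1R (10,000 cells/well) or GCGR (30,000 cells/well), 1 h at RT, dark. EC50 by four-parameter logistic fit of HitHunter cAMPXS luminescence, read following overnight RT incubation.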

[2] = molecular target: T2, human GLP1R (Homo sapiens, UniProt P43220); assay: cAMP activity assay at the GLP-1 receptor (GLP1R); assay type: cell-based
T2 construct: expressed in transfected cells; growth medium holds Blasticidin and Hygromycin
Method: Activity of the peptides at the Glucagon receptor (GCGR) and GLP-1 receptor (GLP1R) was measured in a cAMP activity assay.
GCG/GLP-1 receptor co-agonist peptides were dissolved in 100% DMSO (dimethyl sulfoxide) and serially diluted to generate 10 point titrations. The peptide solutions were then transferred into 384-well assay plates (150 nL/well). Assay ready frozen cells expressing human GLP1R or human GCGR were suspended in growth media consisting of DMEM medium (GIBCO®), 10% FBS (GIBCO®), 1×NEAA(GIBCO®), 1×P/S (GIBCO®), 10 ug/mL Blasticidin (GIBCO®) and 200 μg/mL Hygromycin (GIBCO®). […] The cell suspensions (15 μL) were then added to the assay plates containing the peptide solutions (30,000 cells/well for human GCGR; 10,000 cells/well for human GLP1R). The cells were incubated for 1 hour at room temperature in the dark. Production of cAMP was determined using HitHunter™ cAMPXS kits (DiscoverX) following manufacturer protocol. The plates were incubated for overnight at room temperature in the dark. Luminescence was measured using an EnVision Multilabel plate reader (Perkin Elmer). Native GLP-1 and Glucagon (Bachem) are used as control peptides. EC50 values were calculated using uses a 4 parameter logistic fit based on the Levenberg-Marquardt algorithm.

[3] = summary statement: EC50 at each of the glucagon and GLP-1 receptors, read-out: EC50 at the glucagon receptor
[4] = summary statement: EC50 at each of the glucagon and GLP-1 receptors, read-out: EC50 at the GLP-1 receptor
[5] = cells expressing human GCGR, cAMP production, buffer with or without 20% human serum (not stated which), read-out: GCGR EC50 human

T1 sequence (P47871 26-477): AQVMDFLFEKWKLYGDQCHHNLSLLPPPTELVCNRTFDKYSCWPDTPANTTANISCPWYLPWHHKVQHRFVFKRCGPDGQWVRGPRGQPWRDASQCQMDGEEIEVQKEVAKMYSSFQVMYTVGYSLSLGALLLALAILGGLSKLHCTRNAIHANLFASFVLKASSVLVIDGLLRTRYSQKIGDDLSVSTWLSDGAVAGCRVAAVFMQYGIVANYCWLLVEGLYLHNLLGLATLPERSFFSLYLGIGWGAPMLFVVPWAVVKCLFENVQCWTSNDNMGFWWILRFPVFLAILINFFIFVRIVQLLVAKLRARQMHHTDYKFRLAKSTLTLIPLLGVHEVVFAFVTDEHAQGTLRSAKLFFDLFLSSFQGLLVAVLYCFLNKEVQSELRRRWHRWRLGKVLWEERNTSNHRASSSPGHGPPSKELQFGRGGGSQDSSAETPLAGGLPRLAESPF
T2 sequence (P43220 24-463): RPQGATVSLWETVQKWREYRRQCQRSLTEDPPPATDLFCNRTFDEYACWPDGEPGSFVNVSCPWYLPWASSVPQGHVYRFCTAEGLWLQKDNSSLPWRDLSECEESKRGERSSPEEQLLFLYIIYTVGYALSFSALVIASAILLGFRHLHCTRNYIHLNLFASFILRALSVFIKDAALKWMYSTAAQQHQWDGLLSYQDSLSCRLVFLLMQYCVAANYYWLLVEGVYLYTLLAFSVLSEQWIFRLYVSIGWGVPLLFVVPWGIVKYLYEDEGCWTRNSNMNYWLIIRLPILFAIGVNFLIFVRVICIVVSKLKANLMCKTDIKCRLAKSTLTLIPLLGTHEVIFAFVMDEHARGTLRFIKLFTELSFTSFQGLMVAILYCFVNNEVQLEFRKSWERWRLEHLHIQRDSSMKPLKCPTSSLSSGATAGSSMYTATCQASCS

## CC(C)C[C@H](NC(=O)[C@H](Cc1ccc(O)cc1)NC(=O)[C@H](CCCCN)NC(=O)[C@H](CO)NC(=O)[C@H](Cc1ccc(O)cc1)NC(=O)[C@H](CC(=O)O)NC(=O)[C@H](CO)NC(=O)[C@@H](NC(=O)[C@H](Cc1ccccc1)NC(=O)[C@@H](NC(=O)CNC(=O)[C@H](CCC(N)=O)NC(=O)C(C)(C)NC(=O)[C@@H](N)Cc1c[nH]cn1)[C@@H](C)O)[C@@H](C)O)C(=O)N[C@@H](CC(=O)O)C(=O)N[C@@H](C)C(=O)N[C@@H](CCCNC(=N)N)C(=O)N[C@@H](C)C(=O)N[C@@H](C)C(=O)N[C@@H](CCCCNC(=O)COCCOCCNC(=O)COCCOCCNC(=O)CC[C@H](NC(=O)CCCCCCCCCCCCCCC(=O)O)C(=O)O)C(=O)N[C@@H](CC(=O)O)C(=O)N[C@@H](Cc1ccccc1)C(=O)N[C@H](C(=O)N[C@@H](CCC(N)=O)C(=O)N[C@@H](Cc1c[nH]c2ccccc12)C(=O)N[C@@H](CC(C)C)C(=O)N[C@@H](CCS(C)(=O)=O)C(=O)N[C@@H](CCC(=O)N[C@H](C(N)=O)[C@@H](C)O)C(=O)O)C(C)C [TP826] (H-H[Aib]QGTFTSDYSKYLDARAAK([AEEA-AEEA-γGlu-C16 diacid])DFVQWL[Met(O2)][γGlu]T-NH2)
[1]
  hGCGR/hGLP1R (hTone): 2.7
[1]; [3]
  EC50: < 5 nM
[2]; [4]
  EC50: < 5 nM

## CC(C)C[C@H](NC(=O)[C@H](Cc1ccc(O)cc1)NC(=O)[C@H](CCCCN)NC(=O)[C@H](CO)NC(=O)[C@H](Cc1ccc(O)cc1)NC(=O)[C@H](CC(=O)O)NC(=O)[C@H](CO)NC(=O)[C@@H](NC(=O)[C@H](Cc1ccccc1)NC(=O)[C@@H](NC(=O)CNC(=O)[C@H](CCC(N)=O)NC(=O)C(C)(C)NC(=O)[C@@H](N)Cc1c[nH]cn1)[C@@H](C)O)[C@@H](C)O)C(=O)N[C@@H](CC(=O)O)C(=O)N[C@@H](C)C(=O)N[C@@H](CCCNC(=N)N)C(=O)N[C@@H](C)C(=O)N[C@@H](C)C(=O)N[C@@H](CCC(N)=O)C(=O)N[C@@H](CC(=O)O)C(=O)N[C@@H](Cc1ccccc1)C(=O)N[C@H](C(=O)N[C@@H](CCC(N)=O)C(=O)N[C@@H](Cc1c[nH]c2ccccc12)C(=O)N[C@@H](CC(C)C)C(=O)N[C@@H](CCS(C)(=O)=O)C(=O)N[C@@H](CCCCNC(=O)COCCOCCNC(=O)COCCOCCNC(=O)CC[C@H](NC(=O)CCCCCCCCCCCCCCCCCCC(=O)O)C(=O)O)C(=O)N[C@H](C(N)=O)[C@@H](C)O)C(C)C [TP603] (H-H[Aib]QGTFTSDYSKYLDARAAQDFVQWL[Met(O2)]K([AEEA-AEEA-γGlu-C20 diacid])T-NH2; N-terminus assumed)
[1]
  hGCGR/hGLP1R (hTone): 1.6
[1]; [3]
  EC50: < 5 nM
[2]; [4]
  EC50: < 5 nM

## CC(C)C[C@H](NC(=O)[C@H](Cc1ccc(O)cc1)NC(=O)[C@H](CCCCN)NC(=O)[C@H](CO)NC(=O)[C@H](Cc1ccc(CNC(=O)COCCOCCNC(=O)COCCOCCNC(=O)CC[C@H](NC(=O)CCCCCCCCCCCCCCCCCCC(=O)O)C(=O)O)cc1)NC(=O)[C@H](CC(=O)O)NC(=O)[C@H](CO)NC(=O)[C@@H](NC(=O)[C@H](Cc1ccccc1)NC(=O)[C@@H](NC(=O)CNC(=O)[C@H](CCC(N)=O)NC(=O)C(C)(C)NC(=O)[C@@H](N)Cc1c[nH]cn1)[C@@H](C)O)[C@@H](C)O)C(=O)N[C@@H](CC(=O)O)C(=O)N[C@@H](C)C(=O)N[C@@H](CCCNC(=N)N)C(=O)N[C@@H](C)C(=O)N[C@@H](C)C(=O)N[C@@H](CCC(N)=O)C(=O)N[C@@H](CC(=O)O)C(=O)N[C@@H](Cc1ccccc1)C(=O)N[C@H](C(=O)N[C@@H](CCC(N)=O)C(=O)N[C@@H](Cc1c[nH]c2ccccc12)C(=O)N[C@@H](CC(C)C)C(=O)N[C@@H](CCS(C)(=O)=O)C(=O)N[C@@H](CC(=O)O)C(=O)N[C@H](C(N)=O)[C@@H](C)O)C(C)C [TP580] (H-H[Aib]QGTFTSD[Phe(4-CH2NH2)]([AEEA-AEEA-γGlu-C20 diacid])SKYLDARAAQDFVQWL[Met(O2)]DT-NH2; N-terminus assumed)
[1]; [5]
  EC50: 1.09 nM
[1]
  hGCGR/hGLP1R (hTone): 2.4
[1]; [3]
  EC50: < 5 nM
[2]; [4]
  EC50: < 5 nM

## CC(C)C[C@H](NC(=O)[C@H](Cc1c[nH]c2ccccc12)NC(=O)[C@H](CCCCNC(=O)COCCOCCNC(=O)COCCOCCNC(=O)CC[C@H](NC(=O)CCCCCCCCCCCCCCC(=O)O)C(=O)O)NC(=O)[C@@H](NC(=O)[C@H](Cc1ccccc1)NC(=O)[C@H](CC(=O)O)NC(=O)[C@H](CCC(N)=O)NC(=O)[C@H](C)NC(=O)[C@H](C)NC(=O)[C@H](CCCNC(=N)N)NC(=O)C(C)(C)NC(=O)[C@H](CC(=O)O)NC(=O)[C@H](CC(C)C)NC(=O)[C@H](Cc1ccc(O)cc1)NC(=O)[C@H](CCCCN)NC(=O)[C@H](CO)NC(=O)[C@H](Cc1ccc(O)cc1)NC(=O)[C@H](CC(=O)O)NC(=O)[C@H](CO)NC(=O)[C@@H](NC(=O)[C@H](Cc1ccccc1)NC(=O)[C@@H](NC(=O)CNC(=O)[C@H](CCC(N)=O)NC(=O)C(C)(C)NC(=O)[C@@H](N)Cc1c[nH]cn1)[C@@H](C)O)[C@@H](C)O)C(C)C)C(=O)N[C@@H](CCS(C)(=O)=O)C(=O)N[C@@H](CCC(=O)O)C(=O)N[C@H](C(N)=O)[C@@H](C)O [TP815] (H-H[Aib]QGTFTSDYSKYLD[Aib]RAAQDFVK([AEEA-AEEA-γGlu-C16 diacid])WL[Met(O2)]ET-NH2)
[1]
  hGCGR/hGLP1R (hTone): 0.7
[1]; [3]
  EC50: < 5 nM
[2]; [4]
  EC50: < 5 nM

## CC(C)C[C@H](NC(=O)[C@H](Cc1ccc(O)cc1)NC(=O)[C@H](CCCCN)NC(=O)[C@H](CO)NC(=O)[C@H](Cc1ccc(O)cc1)NC(=O)[C@H](CC(=O)O)NC(=O)[C@H](CO)NC(=O)[C@@H](NC(=O)[C@H](Cc1ccccc1)NC(=O)[C@@H](NC(=O)CNC(=O)[C@H](CCC(N)=O)NC(=O)C(C)(C)NC(=O)[C@@H](N)Cc1c[nH]cn1)[C@@H](C)O)[C@@H](C)O)C(=O)N[C@@H](CC(=O)O)C(=O)N[C@@H](C)C(=O)N[C@@H](CCCNC(=N)N)C(=O)N[C@@H](C)C(=O)N[C@@H](C)C(=O)N[C@@H](CCC(N)=O)C(=O)N[C@@H](CC(=O)O)C(=O)N[C@@H](Cc1ccccc1)C(=O)N[C@H](C(=O)N[C@@H](CCCCNC(=O)COCCOCCNC(=O)CC[C@H](NC(=O)CCCCCCCCCCCCCCCCC(=O)O)C(=O)O)C(=O)N[C@@H](Cc1c[nH]c2ccccc12)C(=O)N[C@@H](CC(C)C)C(=O)N[C@@H](CCS(C)(=O)=O)C(=O)N[C@@H](CC(=O)O)C(=O)N[C@H](C(N)=O)[C@@H](C)O)C(C)C [TP637] (H-H[Aib]QGTFTSDYSKYLDARAAQDFVK([AEEA-γGlu-C18 diacid])WL[Met(O2)]DT-NH2; N-terminus assumed)
[1]
  hGCGR/hGLP1R (hTone): 1.8
[1]; [3]
  EC50: < 5 nM
[2]; [4]
  EC50: < 5 nM

## CC(C)C[C@H](NC(=O)[C@H](CCCCN)NC(=O)[C@H](CCCCN)NC(=O)[C@H](CO)NC(=O)[C@H](Cc1ccc(O)cc1)NC(=O)[C@H](CCC(=O)O)NC(=O)[C@H](CO)NC(=O)[C@@H](NC(=O)[C@H](Cc1ccccc1)NC(=O)[C@@H](NC(=O)CNC(=O)[C@H](CCC(N)=O)NC(=O)C(C)(C)NC(=O)[C@@H](N)Cc1c[nH]cn1)[C@@H](C)O)[C@@H](C)O)C(=O)N[C@@H](CC(=O)O)C(=O)N[C@@H](C)C(=O)N[C@@H](CCCNC(=N)N)C(=O)N[C@@H](C)C(=O)N[C@@H](C)C(=O)N[C@@H](CCCCNC(=O)COCCOCCNC(=O)COCCOCCNC(=O)CC[C@H](NC(=O)CCCCCCCCCCCCCCCCC(=O)O)C(=O)O)C(=O)N[C@@H](CC(=O)O)C(=O)N[C@@H](Cc1ccccc1)C(=O)N[C@H](C(=O)N[C@@H](CCC(N)=O)C(=O)N[C@@H](Cc1c[nH]c2ccccc12)C(=O)N[C@@H](CC(C)C)C(=O)N[C@@H](CCS(C)(=O)=O)C(=O)N[C@@H](CC(=O)O)C(=O)N[C@H](C(N)=O)[C@@H](C)O)C(C)C [TP703] (H-H[Aib]QGTFTSEYSKKLDARAAK([AEEA-AEEA-γGlu-C18 diacid])DFVQWL[Met(O2)]DT-NH2)
[1]; [5]
  EC50: > 19.8 nM
[2]; cells expressing human GLP1R, cAMP production, buffer with or without 20% human serum (not stated which), read-out: GLP1R EC50 human
  EC50: > 19.8 nM

## CC(C)C[C@H](NC(=O)[C@H](Cc1ccc(O)cc1)NC(=O)[C@H](CCCCN)NC(=O)[C@H](CO)NC(=O)[C@H](Cc1ccc(O)cc1)NC(=O)[C@H](CC(=O)O)NC(=O)[C@H](CO)NC(=O)[C@@H](NC(=O)[C@H](Cc1ccccc1)NC(=O)[C@@H](NC(=O)CNC(=O)[C@H](CCC(N)=O)NC(=O)[C@](C)(CO)NC(=O)[C@@H](N)Cc1c[nH]cn1)[C@@H](C)O)[C@@H](C)O)C(=O)N[C@@H](CC(=O)O)C(=O)NC(C)(C)C(=O)N[C@@H](CCCNC(=N)N)C(=O)N[C@@H](C)C(=O)N[C@@H](C)C(=O)N[C@@H](CCCCNC(=O)COCCOCCNC(=O)COCCOCCNC(=O)CC[C@H](NC(=O)CCCCCCCCCCCCCCCCC(=O)O)C(=O)O)C(=O)N[C@@H](CC(=O)O)C(=O)N[C@@H](Cc1ccccc1)C(=O)N[C@H](C(=O)N[C@@H](CCC(N)=O)C(=O)N[C@@H](Cc1c[nH]c2ccccc12)C(=O)N[C@@H](CC(C)C)C(=O)N[C@@H](CCS(C)(=O)=O)C(=O)N[C@@](C)(CC(=O)O)C(=O)N[C@H](C(N)=O)[C@@H](C)O)C(C)C [TP620] (H-H[αMeS]QGTFTSDYSKYLD[Aib]RAAK([AEEA-AEEA-γGlu-C18 diacid])DFVQWL[Met(O2)][αMeD]T-NH2; N-terminus assumed)
[1]
  hGCGR/hGLP1R (hTone): 0.1
[1]; [3]
  EC50: < 5 nM
[2]; [4]
  EC50: < 5 nM
